The results in this text go back to publication PMC7369900 (International Journal of Molecular Sciences, 2020).

Molecules are shown by their SMILES. ≈ marks a conversion by molar mass, not a printed value.

The test system of the experiment is C. albicans Gu5.

Consider `CC[C@H](C)[C@H](NC(=O)[C@H](CCCCN)NC(=O)[C@H](CCCCN)NC(=O)[C@H](C)NC(=O)[C@H](CC(C)C)NC(=O)[C@H](C)NC(=O)[C@H](C)NC(=O)[C@H](CC(C)C)NC(=O)[C@H](C)NC(=O)[C@H](CCCCN)NC(=O)[C@H](CC(C)C)NC(=O)[C@H](CC(N)=O)NC(=O)[C@@H](NC(=O)[C@H](CCCCN)NC(=O)CNC(=O)[C@H](CC(C)C)NC(=O)[C@H](CC(C)C)NC(=O)[C@H](Cc1ccc(O)cc1)NC(=O)CNC(=O)[C@H](C)NC(=O)CCSSCCC(=O)N1CCN(c2cc3c(cc2F)c(=O)c(C(=O)O)cn3C2CC2)CC1)[C@@H](C)CC)C(=O)N[C@@H](CC(C)C)C(N)=O` [Compound 3, CIP-S-S-TP10-NH2], for which the MIC50 (as a rule, an inhibitory concentration at the 50% level, which refers to growth in some studies and to a panel of isolates in others) is 12.5 µM (≈ 33.6 µg/mL).

`CC[C@H](C)[C@H](NC(=O)[C@H](CCCCN)NC(=O)[C@H](CCCCN)NC(=O)[C@H](C)NC(=O)[C@H](CC(C)C)NC(=O)[C@H](C)NC(=O)[C@H](C)NC(=O)[C@H](CC(C)C)NC(=O)[C@H](C)NC(=O)[C@H](CCCCN)NC(=O)[C@H](CC(C)C)NC(=O)[C@H](CC(N)=O)NC(=O)[C@@H](NC(=O)[C@H](CCCCN)NC(=O)CNC(=O)[C@H](CC(C)C)NC(=O)[C@H](CC(C)C)NC(=O)[C@H](Cc1ccc(O)cc1)NC(=O)CNC(=O)[C@H](C)NC(=O)c1cn(C2CC2)c2cc(N3CCNCC3)c(F)cc2c1=O)[C@@H](C)CC)C(=O)N[C@@H](CC(C)C)C(N)=O` [Compound 2, CIP-TP10-NH2] came in with an MIC50 of 25 µM (≈ 62.4 µg/mL).

Turning to `CC[C@H](C)[C@H](NC(=O)[C@H](CCCCN)NC(=O)[C@H](CCCCN)NC(=O)[C@H](C)NC(=O)[C@H](CC(C)C)NC(=O)[C@H](C)NC(=O)[C@H](C)NC(=O)[C@H](CC(C)C)NC(=O)[C@H](C)NC(=O)[C@H](CCCCN)NC(=O)[C@H](CC(C)C)NC(=O)[C@H](CC(N)=O)NC(=O)[C@@H](NC(=O)[C@H](CCCCN)NC(=O)CNC(=O)[C@H](CC(C)C)NC(=O)[C@H](CC(C)C)NC(=O)[C@H](Cc1ccc(O)cc1)NC(=O)CNC(=O)[C@H](C)NC(=O)CN1CCN(c2cc3c(cc2F)c(=O)c(C(=O)O)cn3C2CC2)CC1)[C@@H](C)CC)C(=O)N[C@@H](CC(C)C)C(N)=O` [Compound 1, CIP-CH2CO-TP10-NH2], the MIC50 stood at 50 µM (≈ 128 µg/mL).

Turning to `CC[C@H](C)[C@H](NC(=O)[C@H](CCCCN)NC(=O)[C@H](CCCCN)NC(=O)[C@H](C)NC(=O)[C@H](CC(C)C)NC(=O)[C@H](C)NC(=O)[C@H](C)NC(=O)[C@H](CC(C)C)NC(=O)[C@H](C)NC(=O)[C@H](CCCCN)NC(=O)[C@H](CC(C)C)NC(=O)[C@H](CC(N)=O)NC(=O)[C@@H](NC(=O)[C@H](CCCCN)NC(=O)CNC(=O)[C@H](CC(C)C)NC(=O)[C@H](CC(C)C)NC(=O)[C@H](Cc1ccc(O)cc1)NC(=O)CNC(=O)[C@H](C)N)[C@@H](C)CC)C(=O)N[C@@H](CC(C)C)C(N)=O` [TP10-NH2, transportan 10, reference compound], the MIC50 is 100 µM (≈ 218 µg/mL).

Consider `CC[C@H](C)[C@H](NC(=O)[C@H](CCCCN)NC(=O)[C@H](CCCCN)NC(=O)[C@H](C)NC(=O)[C@H](CC(C)C)NC(=O)[C@H](C)NC(=O)[C@H](C)NC(=O)[C@H](CC(C)C)NC(=O)[C@H](C)NC(=O)[C@H](CCCCN)NC(=O)[C@H](CC(C)C)NC(=O)[C@H](CC(N)=O)NC(=O)[C@@H](NC(=O)[C@H](CCCCN)NC(=O)CNC(=O)[C@H](CC(C)C)NC(=O)[C@H](CC(C)C)NC(=O)[C@H](Cc1ccc(O)cc1)NC(=O)CNC(=O)[C@H](C)NC(=O)[C@@H](N)CSSC[C@H](N)C(=O)N1CCN(c2cc3c(cc2F)c(=O)c(C(=O)O)cn3C2CC2)CC1)[C@@H](C)CC)C(=O)N[C@@H](CC(C)C)C(N)=O` [Compound 6, CIPC-S-S-CTP10-NH2], for which the MIC50 stood at 25 µM (≈ 67.9 µg/mL).

`CC[C@H](C)[C@H](NC(=O)[C@H](CCCCN)NC(=O)[C@H](CCCCN)NC(=O)[C@H](C)NC(=O)[C@H](CC(C)C)NC(=O)[C@H](C)NC(=O)[C@H](C)NC(=O)[C@H](CC(C)C)NC(=O)[C@H](C)NC(=O)[C@H](CCCCN)NC(=O)[C@H](CC(C)C)NC(=O)[C@H](CC(N)=O)NC(=O)[C@@H](NC(=O)[C@H](CCCCN)NC(=O)CNC(=O)[C@H](CC(C)C)NC(=O)[C@H](CC(C)C)NC(=O)[C@H](Cc1ccc(O)cc1)NC(=O)CNC(=O)[C@H](C)NC(=O)c1cn2c3c(c(N4CCN(C)CC4)c(F)cc3c1=O)OC[C@@H]2C)[C@@H](C)CC)C(=O)N[C@@H](CC(C)C)C(N)=O` [Compound 4, LVX-TP10-NH2] yielded an MIC50 of 25 µM (≈ 63.1 µg/mL).

For the compound `CC[C@H](C)[C@H](NC(=O)[C@H](CCCCN)NC(=O)[C@H](CCCCN)NC(=O)[C@H](C)NC(=O)[C@H](CC(C)C)NC(=O)[C@H](C)NC(=O)[C@H](C)NC(=O)[C@H](CC(C)C)NC(=O)[C@H](C)NC(=O)[C@H](CCCCN)NC(=O)[C@H](CC(C)C)NC(=O)[C@H](CC(N)=O)NC(=O)[C@@H](NC(=O)[C@H](CCCCN)NC(=O)CNC(=O)[C@H](CC(C)C)NC(=O)[C@H](CC(C)C)NC(=O)[C@H](Cc1ccc(O)cc1)NC(=O)CNC(=O)[C@H](C)NC(=O)[C@@H](N)CSSC[C@H](NC(=O)c1cn2c3c(c(N4CCN(C)CC4)c(F)cc3c1=O)OC[C@@H]2C)C(=O)O)[C@@H](C)CC)C(=O)N[C@@H](CC(C)C)C(N)=O` [Compound 5, LVXC-S-S-CTP10-NH2], the MIC50 was determined as 12.5 µM (≈ 34.3 µg/mL).
